According to PubChem BioAssay (NCI):
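These data come from cells grown in 96-well plates and exposed to compound for 48 hours at five concentrations. GI50 marks 50% less growth. At the TGI there is no net growth.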

How the values were obtained:
Assay in all cases: inhibition of tumour cell growth, NCI panel, 48 h
A498 renal = tested on: A498 renal
A549 NSCLC = tested on: A549 NSCLC
BT-549 breast = tested on: BT-549 breast
CAKI-1 renal = tested on: CAKI-1 renal
CCRF-CEM leukemia = tested on: CCRF-CEM leukemia
COLO 205 colon = tested on: COLO 205 colon
DU-145 prostate = tested on: DU-145 prostate
EKVX NSCLC = tested on: EKVX NSCLC
HCC-2998 colon = tested on: HCC-2998 colon
HCT-116 colon = tested on: HCT-116 colon
HCT-15 colon = tested on: HCT-15 colon
HL-60(TB) leukemia = tested on: HL-60(TB) leukemia
HOP-62 NSCLC = tested on: HOP-62 NSCLC
HOP-92 NSCLC = tested on: HOP-92 NSCLC
HS 578T breast = tested on: HS 578T breast
HT29 colon = tested on: HT29 colon
IGROV1 ovarian = tested on: IGROV1 ovarian
K-562 leukemia = tested on: K-562 leukemia
KM12 colon = tested on: KM12 colon
M14 melanoma = tested on: M14 melanoma
MALME-3M melanoma = tested on: MALME-3M melanoma
MCF7 breast = tested on: MCF7 breast
MDA-MB-231 breast = tested on: MDA-MB-231 breast
MDA-MB-435 = tested on: MDA-MB-435
MOLT-4 leukemia = tested on: MOLT-4 leukemia
NCI-H226 lung = tested on: NCI-H226 lung
NCI-H23 lung = tested on: NCI-H23 lung
NCI-H460 lung = tested on: NCI-H460 lung
NCI/ADR-RES ovarian = tested on: NCI/ADR-RES ovarian
OVCAR-3 ovarian = tested on: OVCAR-3 ovarian
OVCAR-4 ovarian = tested on: OVCAR-4 ovarian
OVCAR-5 ovarian = tested on: OVCAR-5 ovarian
OVCAR-8 ovarian = tested on: OVCAR-8 ovarian
PC-3 prostate = tested on: PC-3 prostate
RXF 393 renal = tested on: RXF 393 renal
SF-268 CNS = tested on: SF-268 CNS
SF-295 CNS = tested on: SF-295 CNS
SF-539 CNS = tested on: SF-539 CNS
SK-MEL-2 melanoma = tested on: SK-MEL-2 melanoma
SK-MEL-28 melanoma = tested on: SK-MEL-28 melanoma
SK-MEL-5 melanoma = tested on: SK-MEL-5 melanoma
SK-OV-3 ovarian = tested on: SK-OV-3 ovarian
SN12C renal = tested on: SN12C renal
SNB-19 CNS = tested on: SNB-19 CNS
SNB-75 CNS = tested on: SNB-75 CNS
SR leukemia = tested on: SR leukemia
SW-620 colon = tested on: SW-620 colon
T-47D breast = tested on: T-47D breast
TK-10 renal = tested on: TK-10 renal
U251 CNS = tested on: U251 CNS
UACC-257 melanoma = tested on: UACC-257 melanoma
UACC-62 melanoma = tested on: UACC-62 melanoma

Q: For `O=C(CSc1nnc(-c2ccc(Cl)cc2)n1-c1ccccc1)Nc1cccc(F)c1`, which GI50 (A498 renal) is on record?
A: The GI50 was 4.5 µM.

Q: And the TGI (A498 renal)?
A: The TGI was 73.9 µM.

Q: What about the GI50 (A549 NSCLC) of the same molecule?
A: The GI50 was 2.77 µM.

Q: What about the TGI (A549 NSCLC) of the same molecule?
A: The TGI was > 100 µM.

Q: And the GI50 (BT-549 breast)?
A: Its GI50 is > 100 µM.

Q: And the TGI (BT-549 breast)?
A: The TGI was > 100 µM.

Q: What about the GI50 (CAKI-1 renal) of the same molecule?
A: Its GI50 is 2.89 µM.

Q: What about the TGI (CAKI-1 renal) of the same molecule?
A: The TGI was > 100 µM.

Q: And the GI50 (CCRF-CEM leukemia)?
A: Its GI50 is > 100 µM.

Q: And the TGI (CCRF-CEM leukemia)?
A: The TGI was > 100 µM.

Q: And the GI50 (COLO 205 colon)?
A: The GI50 was > 100 µM.

Q: What about the TGI (COLO 205 colon) of the same molecule?
A: Its TGI is > 100 µM.

Q: And the GI50 (DU-145 prostate)?
A: Its GI50 is > 30.3 µM.

Q: And the TGI (DU-145 prostate)?
A: Its TGI is > 100 µM.

Q: And the GI50 (EKVX NSCLC)?
A: The GI50 was > 23 µM.

Q: What about the TGI (EKVX NSCLC) of the same molecule?
A: Its TGI is > 100 µM.

Q: And the GI50 (HCC-2998 colon)?
A: The GI50 was > 30.3 µM.

Q: What about the TGI (HCC-2998 colon) of the same molecule?
A: The TGI was > 100 µM.

Q: What about the GI50 (HCT-116 colon) of the same molecule?
A: The GI50 was 2.38 µM.

Q: And the TGI (HCT-116 colon)?
A: Its TGI is > 100 µM.

Q: And the GI50 (HCT-15 colon)?
A: Its GI50 is > 100 µM.

Q: What about the TGI (HCT-15 colon) of the same molecule?
A: The TGI was > 100 µM.

Q: And the GI50 (HL-60(TB) leukemia)?
A: The GI50 was > 100 µM.

Q: And the TGI (HL-60(TB) leukemia)?
A: Its TGI is > 100 µM.

Q: What about the GI50 (HOP-62 NSCLC) of the same molecule?
A: The GI50 was 3.18 µM.

Q: What about the TGI (HOP-62 NSCLC) of the same molecule?
A: The TGI was > 26.4 µM.

Q: And the GI50 (HOP-92 NSCLC)?
A: The GI50 was 4 µM.

Q: And the TGI (HOP-92 NSCLC)?
A: Its TGI is > 100 µM.

Q: What about the GI50 (HS 578T breast) of the same molecule?
A: The GI50 was 3.3 µM.

Q: And the TGI (HS 578T breast)?
A: The TGI was > 100 µM.

Q: What about the GI50 (HT29 colon) of the same molecule?
A: The GI50 was > 27 µM.

Q: And the TGI (HT29 colon)?
A: Its TGI is > 100 µM.

Q: What about the GI50 (IGROV1 ovarian) of the same molecule?
A: The GI50 was 3.2 µM.

Q: And the TGI (IGROV1 ovarian)?
A: The TGI was > 100 µM.

Q: And the GI50 (K-562 leukemia)?
A: Its GI50 is > 100 µM.

Q: What about the TGI (K-562 leukemia) of the same molecule?
A: Its TGI is > 100 µM.

Q: What about the GI50 (KM12 colon) of the same molecule?
A: The GI50 was > 21 µM.

Q: And the TGI (KM12 colon)?
A: Its TGI is > 100 µM.

Q: And the GI50 (M14 melanoma)?
A: Its GI50 is > 100 µM.

Q: And the TGI (M14 melanoma)?
A: Its TGI is > 100 µM.

Q: What about the GI50 (MALME-3M melanoma) of the same molecule?
A: Its GI50 is 3.9 µM.

Q: What about the TGI (MALME-3M melanoma) of the same molecule?
A: Its TGI is > 100 µM.

Q: What about the GI50 (MCF7 breast) of the same molecule?
A: The GI50 was 3.47 µM.

Q: And the TGI (MCF7 breast)?
A: The TGI was > 100 µM.

Q: What about the GI50 (MDA-MB-231 breast) of the same molecule?
A: Its GI50 is 2.36 µM.

Q: And the TGI (MDA-MB-231 breast)?
A: Its TGI is > 24.2 µM.

Q: And the GI50 (MDA-MB-435)?
A: Its GI50 is > 100 µM.

Q: What about the TGI (MDA-MB-435) of the same molecule?
A: Its TGI is > 100 µM.

Q: What about the GI50 (MOLT-4 leukemia) of the same molecule?
A: Its GI50 is > 100 µM.

Q: And the TGI (MOLT-4 leukemia)?
A: The TGI was > 100 µM.

Q: What about the GI50 (NCI-H226 lung) of the same molecule?
A: The GI50 was 4.11 µM.

Q: What about the TGI (NCI-H226 lung) of the same molecule?
A: Its TGI is > 100 µM.

Q: And the GI50 (NCI-H23 lung)?
A: Its GI50 is 5.14 µM.

Q: And the TGI (NCI-H23 lung)?
A: The TGI was > 100 µM.

Q: What about the GI50 (NCI-H460 lung) of the same molecule?
A: Its GI50 is 1.49 µM.

Q: What about the GI50 (NCI/ADR-RES ovarian) of the same molecule?
A: The GI50 was 2.26 µM.

Q: And the TGI (NCI/ADR-RES ovarian)?
A: The TGI was 8.77 µM.

Q: What about the GI50 (OVCAR-3 ovarian) of the same molecule?
A: The GI50 was 4.11 µM.

Q: What about the TGI (OVCAR-3 ovarian) of the same molecule?
A: Its TGI is 73.9 µM.

Q: What about the GI50 (OVCAR-4 ovarian) of the same molecule?
A: Its GI50 is > 100 µM.

Q: And the TGI (OVCAR-4 ovarian)?
A: Its TGI is > 100 µM.

Q: And the TGI (OVCAR-5 ovarian)?
A: The TGI was > 100 µM.

Q: What about the GI50 (OVCAR-8 ovarian) of the same molecule?
A: Its GI50 is 3.03 µM.

Q: What about the TGI (OVCAR-8 ovarian) of the same molecule?
A: Its TGI is > 100 µM.

Q: What about the GI50 (PC-3 prostate) of the same molecule?
A: Its GI50 is > 100 µM.

Q: And the TGI (PC-3 prostate)?
A: Its TGI is > 100 µM.

Q: What about the GI50 (RXF 393 renal) of the same molecule?
A: The GI50 was 2.86 µM.

Q: And the TGI (RXF 393 renal)?
A: Its TGI is > 36 µM.

Q: And the GI50 (SF-268 CNS)?
A: The GI50 was > 21.4 µM.

Q: And the TGI (SF-268 CNS)?
A: Its TGI is > 100 µM.

Q: What about the GI50 (SF-295 CNS) of the same molecule?
A: The GI50 was 3.98 µM.

Q: And the TGI (SF-295 CNS)?
A: Its TGI is > 70.6 µM.

Q: What about the GI50 (SF-539 CNS) of the same molecule?
A: The GI50 was 2.33 µM.

Q: What about the TGI (SF-539 CNS) of the same molecule?
A: The TGI was > 22.4 µM.

Q: And the GI50 (SK-MEL-2 melanoma)?
A: Its GI50 is > 100 µM.

Q: And the TGI (SK-MEL-2 melanoma)?
A: The TGI was > 100 µM.

Q: And the GI50 (SK-MEL-28 melanoma)?
A: Its GI50 is > 100 µM.

Q: And the TGI (SK-MEL-28 melanoma)?
A: The TGI was > 100 µM.

Q: What about the GI50 (SK-MEL-5 melanoma) of the same molecule?
A: Its GI50 is > 55.4 µM.

Q: What about the TGI (SK-MEL-5 melanoma) of the same molecule?
A: Its TGI is > 100 µM.

Q: What about the GI50 (SK-OV-3 ovarian) of the same molecule?
A: Its GI50 is 10.2 µM.

Q: What about the TGI (SK-OV-3 ovarian) of the same molecule?
A: The TGI was > 100 µM.

Q: What about the GI50 (SN12C renal) of the same molecule?
A: The GI50 was 1.91 µM.

Q: And the TGI (SN12C renal)?
A: The TGI was 6.26 µM.

Q: And the GI50 (SNB-19 CNS)?
A: The GI50 was 6.27 µM.

Q: And the TGI (SNB-19 CNS)?
A: Its TGI is > 100 µM.

Q: And the GI50 (SNB-75 CNS)?
A: Its GI50 is 2.09 µM.

Q: And the TGI (SNB-75 CNS)?
A: The TGI was > 30.5 µM.

Q: And the GI50 (SR leukemia)?
A: The GI50 was > 35.3 µM.

Q: What about the TGI (SR leukemia) of the same molecule?
A: Its TGI is > 100 µM.

Q: What about the GI50 (SW-620 colon) of the same molecule?
A: Its GI50 is 5 µM.

Q: What about the TGI (SW-620 colon) of the same molecule?
A: The TGI was > 100 µM.

Q: What about the GI50 (T-47D breast) of the same molecule?
A: Its GI50 is 1.58 µM.

Q: What about the TGI (T-47D breast) of the same molecule?
A: The TGI was > 100 µM.

Q: And the GI50 (TK-10 renal)?
A: Its GI50 is 4.65 µM.

Q: What about the TGI (TK-10 renal) of the same molecule?
A: The TGI was > 100 µM.

Q: And the GI50 (U251 CNS)?
A: The GI50 was 1.62 µM.

Q: And the TGI (U251 CNS)?
A: Its TGI is 4.46 µM.

Q: What about the GI50 (UACC-257 melanoma) of the same molecule?
A: The GI50 was > 100 µM.

Q: And the TGI (UACC-257 melanoma)?
A: The TGI was > 100 µM.

Q: And the GI50 (UACC-62 melanoma)?
A: The GI50 was > 100 µM.

Q: What about the TGI (UACC-62 melanoma) of the same molecule?
A: Its TGI is > 100 µM.
